Test results taken from the NIST ThermoML archive (doi:10.1021/je050333h).

Columns and labels:
[1] = 101 kPa, Liquid; for speed of sound: Sing-around technique in a fixed-path interferometer
[2] = cn = amount concentration of the nth substance listed, in mol/dm3; settings: 101 kPa, Liquid, c2 = 0; for speed of sound: Sing-around technique in a fixed-path interferometer

CC(C)CC(C)(C)C [2,2,4-trimethylpentane]
[1]
Settings	kinematic viscosity [m2/s]	mass density [kg/m3]	speed of sound [m/s]
293.15 K	7.33e-07	690.6	1103.2
298.15 K	6.97e-07	686.3	1082.2
303.15 K	6.63e-07	680.84	1061.3
313.15 K	6.02e-07	673.37	1020.1
323.15 K	5.49e-07	664.65	979.5

CC(C)CC(C)(C)C [2,2,4-trimethylpentane] + CCCCC(CC)COC(=O)CC(C(=O)OCC(CC)CCCC)S(=O)(=O)[O-].[Na+]
[2]
Settings	kinematic viscosity [m2/s]	mass density [kg/m3]	speed of sound [m/s]
293.15 K	7.33e-07	690.6	1103.2
298.15 K	6.97e-07	686.3	1082.2
303.15 K	6.63e-07	680.84	1061.3
313.15 K	6.02e-07	673.37	1020.1
323.15 K	5.49e-07	664.65	979.5
